From PubChem BioAssay AID1259411 (Chemical Carcinogenesis Research Information System (CCRIS), 2018) come the findings set out here.

SMILES strings stand for the structures. Activity calls are given as the source filed them. The rule behind the calls is not given here.

This data set has as its system rodent carcinogenicity bioassays, tumor incidence. As to the kind of experiment: CCRIS carcinogenicity studies. Put shortly:
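NCI-built, expert-reviewed records of carcinogenicity and related test outcomes (mutagenicity, tumor promotion/inhibition) compiled from published and report sources, historical span 1985-2011, not updated.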

Consider `CO/N=C(/C(=O)OC)c1ccccc1COc1ccccc1C`, for which the carcinogen call is “inactive; negative” (Species: Mouse, Strain/Sex: Strain not specified by Department of Pesticide Regulation /Female (50/Group), Route: Oral, Dose: 0, 81, 400, 1662 mg/kg/day of 93.7-96.6% kresoxim-methyl in diet for 18 mo, study duration 18 mo, Dose: 0, 81, 400, 1662 mg/kg/day of 93.7-96.6% kresoxim-methyl in diet for 18 mo, study duration 18 mo); “inactive; negative” (Species: Mouse, Strain/Sex: Strain not specified by Department of Pesticide Regulation /Male (50/Group), Route: Oral, Dose: 0, 60, 304, 1305 mg/kg/day of 93.7-96.6% kresoxim-methyl in diet for 18 mo, study duration 18 mo, Dose: 0, 60, 304, 1305 mg/kg/day of 93.7-96.6% kresoxim-methyl in diet for 18 mo, study duration 18 mo); “active; positive” (Species: Rat, Strain/Sex: Wistar/Female (20/Group), Route: Oral, Dose: 0, 12, 48, 503, 985 mg/kg/day of 93.7-96.6% kresoxim-methyl in diet for 24 mo, study duration 24 mo, Dose: 0, 12, 48, 503, 985 mg/kg/day of 93.7-96.6% kresoxim-methyl in diet for 24 mo, study duration 24 mo, Tumor Site: Type of Lesion: Liver: hepatocellular carcinoma (1/20, 0/20, 2/20, 6/20, 6/20)); “active; positive” (Species: Rat, Strain/Sex: Wistar/Female (50/Group), Route: Oral, Dose: 0, 12, 47, 497, 1046 mg/kg/day of 93.7-96.6% kresoxim-methyl in diet for 24 mo, study duration 24 mo, Dose: 0, 12, 47, 497, 1046 mg/kg/day of 93.7-96.6% kresoxim-methyl in diet for 24 mo, study duration 24 mo, Tumor Site: Type of Lesion: Liver: hepatocellular carcinoma (1/50, 1/50, 2/50, 13/50, 16/50)); “active; positive” (Species: Rat, Strain/Sex: Wistar/Male (20/Group), Route: Oral, Dose: 0, 9, 36, 370, 746 mg/kg/day of 93.7-96.6% kresoxim-methyl in diet for 24 mo, study duration 24 mo, Dose: 0, 9, 36, 370, 746 mg/kg/day of 93.7-96.6% kresoxim-methyl in diet for 24 mo, study duration 24 mo, Tumor Site: Type of Lesion: Liver: hepatocellular carcinoma (0/20, 1/20, 1/20, 3/20, 8/20)); “active; positive” (Species: Rat, Strain/Sex: Wistar/Male (50/Group), Route: Oral, Dose: 0, 9, 36, 375, 770 mg/kg/day of 93.7-96.6% kresoxim-methyl in diet for 24 mo, study duration 24 mo, Dose: 0, 9, 36, 375, 770 mg/kg/day of 93.7-96.6% kresoxim-methyl in diet for 24 mo, study duration 24 mo, Tumor Site: Type of Lesion: Liver: hepatocellular carcinoma (7/50, 5/50, 2/50, 18/50, 11/50). Spleen: hemangiosarcoma (0/50, 0/50, 2/50, 2/50, 3/50)).
For `COc1ccc(N)cc1N`, the carcinogen call (Species: MOUSE, Strain/Sex: B6C3F1/FEMALE, Route: ORAL, Dose: 0, 0.12, 0.24% IN DIET FOR 78 WK (STUDY DURATION: 96-97 WK), Dose: 0, 0.12, 0.24% IN DIET FOR 78 WK (STUDY DURATION: 96-97 WK), Tumor Site: Type of Lesion: THYROID GLAND: FOLLICULAR CELL ADENOMA OR CARCINOMA) was “active; positive”; the carcinogen call (Species: MOUSE, Strain/Sex: B6C3F1/MALE, Route: ORAL, Dose: 0, 0.12, 0.24% IN DIET FOR 78 WK (STUDY DURATION: 96-97 WK), Dose: 0, 0.12, 0.24% IN DIET FOR 78 WK (STUDY DURATION: 96-97 WK), Tumor Site: Type of Lesion: THYROID GLAND: FOLLICULAR CELL ADENOMA) is “active; positive”; the carcinogen call (Species: RAT, Strain/Sex: F344/FEMALE, Route: ORAL, Dose: 0, 0.12, 0.5% TWA, IN DIET FOR 78 WK (STUDY DURATION: 107-110 WK), Dose: 0, 0.12, 0.5% TWA, IN DIET FOR 78 WK (STUDY DURATION: 107-110 WK), Tumor Site: Type of Lesion: THYROID GLAND: ADENOCARCINOMA (NOS) OR FOLLICULAR CELL CARCINOMA OR PAPILLARY CYSTADENOCARCINOMA (NOS), EAR (ZYMBAL GLAN) is “active; positive”; the carcinogen call (Species: RAT, Strain/Sex: F344/MALE, Route: ORAL, Dose: 0, 0.12, 0.5% TWA, IN DIET FOR 78 WK (STUDY DURATION: 107-109 WK), Dose: 0, 0.12, 0.5% TWA, IN DIET FOR 78 WK (STUDY DURATION: 107-109 WK), Tumor Site: Type of Lesion: THYROID GLAND: C CELL ADENOMA OR CARCINOMA, ADENOCARCINOMA (NOS), ADENOCARCINOMA (NOS) OR PAPILLARY ADENOCARCINOMA OR FO) was “active; positive”.
`O=C(CO)[C@@H](O)[C@H](O)[C@H](O)CO`: the carcinogen call (Species: RAT, Strain/Sex: SPRAGUE-DAWLEY/MALE, Route: ORAL, Dose: 0, 120 G/L IN DRINKING WATER AD LIBITUM FOR 30 WK (STUDY DURATION: 501 D)) was “inactive; negative”.
On to `CCCC(=O)CN(C)N=O`, for which the carcinogen call was “active; positive” (Species: RAT, Strain/Sex: WISTAR/MALE, FEMALE, Route: SUBCUTANEOUS, Dose: 0, 75 MG/KG 1/WK FOR 6 WK TO ADULT ANIMALS (STUDY DURATION: LIFETIME), Tumor Site: Type of Lesion: ESOPHAGUS: PAPILLOMA, NASAL CAVITY: PAPILLOMA, SQUAMOUS CARCINOMA OR ADENOMA, SOFT TISSUE (INJECTION SITE): SARCOMA, THY, Tumor Site: Type of Lesion: ESOPHAGUS: PAPILLOMA, NASAL CAVITY: PAPILLOMA, SQUAMOUS CARCINOMA OR ADENOMA, SOFT TISSUE (INJECTION SITE): SARCOMA, THY) and “active; positive” (Species: RAT, Strain/Sex: WISTAR/MALE,FEMALE, Route: INTRAPERITONEAL, Dose: 0, 75 MG/KG 1/WK FOR 6 WK BEGINNING AT 52-61 DAYS OF AGE (STUDY DURATION: >35 WK), Tumor Site: Type of Lesion: ESOPHAGUS: PAPILLOMA, NASAL CAVITY: TUMOR, INJECTION SITE: SARCOMA, Tumor Site: Type of Lesion: ESOPHAGUS: PAPILLOMA, NASAL CAVITY: TUMOR, INJECTION SITE: SARCOMA).
For `C#CCOc1ccc(CCNC(=O)C(OCC#C)c2ccc(Cl)cc2)cc1OC` (stereo not given), the carcinogen call is “inactive; negative” (Species: Mouse, Strain/Sex: C57BL/10J CD-1 / Female (50/Group), Route: Oral, Dose: 0, 13.2, 67.8, 284.6 mg/kg/day of 96.5% mandipropamid in diet for 80 wk, study duration 80 wk, Dose: 0, 13.2, 67.8, 284.6 mg/kg/day of 96.5% mandipropamid in diet for 80 wk, study duration 80 wk); “inactive; negative” (Species: Mouse, Strain/Sex: C57BL/10J CD-1 / Male (50/Group), Route: Oral, Dose: 0, 10.6, 55.2, 222.7 mg/kg/day of 96.5% mandipropamid in diet for 80 wk, study duration 80 wk, Dose: 0, 10.6, 55.2, 222.7 mg/kg/day of 96.5% mandipropamid in diet for 80 wk, study duration 80 wk); “inactive; negative” (Species: Rat, Strain/Sex: Alpk:AP SD (Wistar-derived)/Female (52/Group), Route: Oral, Dose: 0, 3.5, 17.6, 69.7 mg/kg/day of 96.5% mandipropamid in diet for 104 wk, study duration 104 wk, Dose: 0, 3.5, 17.6, 69.7 mg/kg/day of 96.5% mandipropamid in diet for 104 wk, study duration 104 wk); “inactive; negative” (Species: Rat, Strain/Sex: Alpk:AP SD (Wistar-derived)/Male (52/Group), Route: Oral, Dose: 0, 3.0, 15.2, 61.3 mg/kg/day of 96.5% mandipropamid in diet for 104 wk, study duration 104 wk, Dose: 0, 3.0, 15.2, 61.3 mg/kg/day of 96.5% mandipropamid in diet for 104 wk, study duration 104 wk).
With `CN(C)P(=O)(N(C)C)N(C)C`, the carcinogen call (Species: RAT, Route: INHALATION, Tumor Site: Type of Lesion: NASAL CAVITY) was “active; positive”; the carcinogen call (Species: RAT, Strain/Sex: STRAIN-CD/MALE,FEMALE, Route: INHALATION, Dose: 0, 10, 50, 100, 400, 4000 PPB FOR 6-24 MO (STUDY DURATION: 2 YR), Dose: 0, 10, 50, 100, 400, 4000 PPB FOR 6-24 MO (STUDY DURATION: 2 YR), Tumor Site: Type of Lesion: NASAL CAVITY: EPIDERMOID CARCINOMA) was “active; positive”; the carcinogen call (Species: RAT, Strain/Sex: STRAIN-CD/MALE,FEMALE, Route: INHALATION, Dose: 0, 10, 50, 100, 400, 4000 PPB FOR 6-24 MO, STUDY DURATION: 24-25 MO, Dose: 0, 10, 50, 100, 400, 4000 PPB FOR 6-24 MO, STUDY DURATION: 24-25 MO, Tumor Site: Type of Lesion: NASAL CAVITY: SQUAMOUS CELL PAPILLOMA, EPIDERMOID CARCINOMA, NASAL CAVITY (ADENOID): SQUAMOUS CELL CARCINOMA) was “active; positive”.
